Where two headings read alike, the source gives them in different places. Bounds are passed on as bounds.

The subject of assay [1] is PGD2 receptor. The assay can be described thus: Acceleration of vascular permeability of conjunctiva induced by PGD2 (Evans blue dye leakage). The note with it: for ED50 PGD2: oral, 1 h before challenge, 0.1% PGD2 instillation, conjunctival dye leakage, guinea pigs; for inhibition of the increase in vascular permeability in conjunctiva by the stimulation with PGD2: summary of Table 80, oral 1 h before challenge, guinea pig. Format: in vivo, guinea pig. The protocol: (§1) Acceleration of Vascular Permeability of Conjunctiva Induced by PGD2 and U-46619
(§2) Using male Hartley guinea pigs, PGD2- and TxA2 receptor-mediated increase in conjunctival vascular permeability was produced by instillation of each 10 μl solution of either 0.1% PGD2 or U-46619 (TXA2 receptor agonist) to the both eyes without anesthetization. Immediately after that, Evans blue dye (20 mg/kg) was intravenously injected. 30 min after the challenge, guinea pigs were sacrificed by bleeding under anesthesia with Pentobarbital (30 mg/kg, i.p.) and the tissue of conjunctiva was removed. The dye leaked into the tissue was extracted in formamide 3 ml at 60° C. for more than 24 h, and then centrifuged. The absorbance of the supernatant was measured at 620 nm. The amount of dye was calculated from the calibration curve of Evans blue dye. Each compound was suspended in 0.5% methyl-cellulose and administrated orally at 1 h before the challenge. The antagonistic activity was evaluated by the inhibition ratio against the dye leaked into conjunctiva caused by PGD2 or U-46619 at each dose and then a 50% effective dose of inhibition (ED50 value) of each compound was calculated.

The subject of assay [2] is TxA2 receptor. The experiment in a line: Acceleration of vascular permeability of conjunctiva induced by U-46619 (Evans blue dye leakage). The assay is classed as in vivo, guinea pig. The note with it: for ED50 TXA2 (U-46619): oral, 1 h before challenge, 0.1% U-46619 instillation, conjunctival dye leakage, guinea pigs; for inhibition of the increase in vascular permeability in conjunctiva caused by U-46619: summary of Table 80, oral 1 h before challenge, guinea pig. On the procedure: as §1, §2

Assay [3] addresses T1, PGD2 receptor (Homo sapiens, UniProt Q13258).
T1 construct: A suspension adjusted to contain the platelets at a final concentration of 5×10^8/ml was warmed at 37° C; endogenous in cells; host or cells: washed human platelets from a healthy volunteer
T1 sequence (Q13258 1-359): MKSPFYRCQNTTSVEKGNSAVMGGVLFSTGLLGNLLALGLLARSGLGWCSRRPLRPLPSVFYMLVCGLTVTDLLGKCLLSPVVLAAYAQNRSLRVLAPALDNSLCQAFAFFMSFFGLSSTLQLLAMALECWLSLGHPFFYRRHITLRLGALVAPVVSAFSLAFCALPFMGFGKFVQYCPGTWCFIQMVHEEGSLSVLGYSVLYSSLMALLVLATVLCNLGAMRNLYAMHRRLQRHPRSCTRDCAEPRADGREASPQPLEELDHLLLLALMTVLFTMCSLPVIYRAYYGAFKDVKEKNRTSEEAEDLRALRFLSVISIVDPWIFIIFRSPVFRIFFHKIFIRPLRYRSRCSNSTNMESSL
The experiment in a line: Antagonistic activity against PGD2 receptor using human platelet (inhibition of PGD2-induced cAMP increase). The assay is classed as cell-based.

Assay [4] concerns Eosinophil Number in Bronchoalveolar Lavage Fluid. The experiment in a line: Antigen-induced increase in the eosinophil number in bronchoalveolar lavage fluid. The assay is classed as in vivo, guinea pig. The note with it: for suppression of eosinophil infiltration: summary of Table 77 to Table 79, bronchoalveolar lavage fluid. On the procedure:
Antigen-Induced Increase in the Eosinophil Number in Bronchoalveolar Lavage Fluid.
Bronchoalveolar lavage was performed with 10 mL of saline, after the animals were sensitized and challenged with antigen. The number of total cells in the recovered fluid was stained with Türk and counted using hemocytometer. *: P<0.05, **:P<0.01 vs Vehicle(Dunnett's test), ^##: P<0.01 vs Vehicle(Student's t test). ( ): inhibition %.

Where [5] appears, read: comparative experiment in accordance with Experiment 3, read-out: Experiment 3 Antagonistic activity against PGD2 receptor IC50.
Setting [6] is: 10 mg/kg, bronchoalveolar lavage fluid after antigen challenge.

A word on the IC50: it is the point on the concentration scale where inhibition reaches its midpoint. For orientation: inhibition means the change of the read-out against control, counted positive when it falls. As to `O=C(O)CCC/C=C\C[C@H]1[C@@H]2CC[C@@H](C2)[C@@H]1NS(=O)(=O)c1ccccc1` [A, reference compound], in assay [1], the “ED50 PGD2” value is reported as more than 30 mg/kg and the “inhibition of the increase in vascular permeability in conjunctiva by the stimulation with PGD2” value was “suppressed only U-46619-induced response”. In assay [2], the “ED50 TXA2 (U-46619)” value amounted to 0.017 mg/kg and the “inhibition of the increase in vascular permeability in conjunctiva caused by U-46619” value is “suppressed”. Further, the 50% inhibitory concentration (IC50) in assay [3] (setting [5]) is more than 10000 nM. The Total cells in assay [4] (setting [6]) is 15.20 ± 2.20 × 10^6 cells/animal. Also, the inhibition at 10 mg/kg in assay [4] (Cavia porcellus, Eosinophil, 10 mg/kg, bronchoalveolar lavage fluid after antigen challenge, read-out: inhibition % (total cells in bronchoalveolar lavage fluid) (converted)) was -12%. In addition, in assay [4], the “suppression of eosinophil infiltration” value is reported as “did not show any inhibitory actions”.

For `Cc1cccn1S(=O)(=O)c1ccc(C(=O)N[C@@H]2[C@@H](CCCC/C=C/C(=O)O)C[C@H]3C[C@@H]2C3(C)C)s1` [II-7I-55a], in assay [1], the “ED50 PGD2” value came out at 0.33 mg/kg and the “inhibition of the increase in vascular permeability in conjunctiva by the stimulation with PGD2” value is reported as “showed both responses”. Also, in assay [2], the “ED50 TXA2 (U-46619)” value came out at 0.030 mg/kg and the “inhibition of the increase in vascular permeability in conjunctiva caused by U-46619” value is reported as “showed both responses”. The half-maximal inhibitory concentration (IC50) in assay [3] (setting [5]) stood at 63 nM. In addition, the IC50 in assay [3] (human platelet, 0.1 μM PGD2, read-out: Inhibitory activity for the increase of cAMP caused by PGD2 in human platelet IC50) came to 63 nM. Moreover, in assay [4] (setting [6]), the Total cells is 12.26 ± 1.54 × 10^6 cells/animal and the “inhibition % (total cells in bronchoalveolar lavage fluid)” value is 80%. Also, the “suppression of eosinophil infiltration” value in assay [4] was “significantly suppressed”.

The values are drawn from patent US7084136B2, “Drug composition antagonistic to both PGD2/TXA2 receptors” (Shionogi & Co., Ltd., priority 2000, dated 2006).
